Test results: US7902373B2 (Pfizer Inc, priority 2006, dated 2011)
pIC50: −log10 of the molar value.

Target: human recombinant H-PGDS (Homo sapiens, UniProt O60760)
Assay: Fluorescence intensity h-PGDS TBA enzyme assay
Format: biochemical
Conditions: Examples up to 622 (and 3a, 3b)

Chain of human recombinant H-PGDS (O60760 whole entry): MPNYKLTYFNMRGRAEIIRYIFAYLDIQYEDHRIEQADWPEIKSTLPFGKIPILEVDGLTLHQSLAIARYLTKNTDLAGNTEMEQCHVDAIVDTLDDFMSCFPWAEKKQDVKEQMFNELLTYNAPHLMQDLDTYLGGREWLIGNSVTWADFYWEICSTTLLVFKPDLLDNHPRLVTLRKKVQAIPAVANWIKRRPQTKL

Molecule	pIC50
COCCCNc1nccc(CN2CCC(NC(=O)c3ccc(-c4cccc(F)c4)nc3)CC2)n1 [Example 391, 6-(3-Fluorophenyl)-N-[1-({2-[(3-methoxypropyl)amino]pyrimidin-4-yl}methyl)piperidin-4-yl]nicotinamide]	8.92
CC(C)(C)C(=O)N1CCC(NC(=O)c2ccc(-c3ccccc3)nc2)CC1 [Example 7, N-[1-(2,2-Dimethylpropanoyl)piperidin-4-yl]-6-phenylnicotinamide]	9.45
O=C(NC1CCN(c2ncccc2C(=O)c2ccccn2)CC1)c1ccc(-c2cccc(F)c2)nc1 [Example 74, 6-(3-Fluorophenyl)-N-{1-[3-(pyridin-2-ylcarbonyl)pyridin-2-yl]piperidin-4-yl}nicotinamide]	9.53
COc1c(C)cnc(CN2CCC(NC(=O)c3ccc(-c4cccc(F)c4)nc3)CC2)c1C [Example 487]	9.43
CC(C)(C)OC(=O)N1CCC(NC(=O)c2ccc(-c3cccc(F)c3)nc2)CC1 [Example 598, tert-Butyl 4-({[6-(3-fluorophenyl)pyridin-3-yl]carbonyl}amino)piperidine-1-carboxylate]	8.42
CCOc1ccccc1CN1CCC(NC(=O)c2ccc(-c3cccc(F)c3)nc2)CC1 [Example 229, N-[1-(2-Ethoxybenzyl)piperidin-4-yl]-6-(3-fluorophenyl)nicotinamide]	9.29
N-(1-{[4-(3,4)-1,3-Thiazol-2-yl]methyl}piperidin-4-yl)- 6-(3-fluorophenyl)nicotinamide [Example 413]	6.00
CCC(CO)n1cnc2c(N3CCC(NC(=O)c4ccc(-c5cccc(F)c5)nc4)CC3)ncnc21 (single isomer, unassigned) [Example 581, 6-(3-Fluorophenyl)-N-(1-{9-[1-(hydroxymethyl)propyl]-9H-purin-6-yl}piperidin-4-yl)nicotinamide]	9.16
O=C(NC1CCN(c2nc3ccccc3nc2NCCO)CC1)c1ccc(-c2cccc(F)c2)nc1 [Example 43, 6-(3-Fluorophenyl)-N-(1-{3-[(2-hydroxyethyl)amino]quinoxalin-2-yl}piperidin-4-yl)nicotinamide]	8.66
CC(C)Oc1ccccc1CN1CCC(NC(=O)c2ccc(-c3cccc(F)c3)nc2)CC1 [Example 326, 6-(3-Fluorophenyl)-N-[1-(2-isopropoxybenzyl)piperidin-4-yl]nicotinamide]	8.61
CCCN1CCC(NC(=O)c2ccc(-c3cccc(F)c3)nc2)CC1 [Example 591, 6-(3-Fluorophenyl)-N-(1-propylpiperidin-4-yl)nicotinamide]	8.25
N#Cc1nccnc1N1CCC(NC(=O)c2ccc(-c3cccc(F)c3)nc2)CC1 [Example 142, N-[1-(3-Cyanopyrazin-2-yl)piperidin-4-yl]-6-(3-fluorophenyl)nicotinamide]	9.48
COc1cccc(-c2ccc(C(=O)NC3CCN(Cc4ccccc4)CC3)cn2)c1 [Example 17, N-(1-Benzylpiperidin-4-yl)-6-(3-methoxyphenyl)nicotinamide]	7.93
O=C(NC1CCN(c2nccnc2-c2ccccc2)CC1)c1ccc(-c2cccc(F)c2)nc1 [Example 42, 6-(3-Fluorophenyl)-N-[1-(3-phenylpyrazin-2-yl)piperidin-4-yl]nicotinamide]	8.07
NC(=O)c1ccc(N2CCC(NC(=O)c3ccc(-c4cccc(F)c4)nc3)CC2)nc1 [Example 68, N-{1-[5-(Aminocarbonyl)pyridin-2-yl]piperidin-4-yl}-6-(3-fluorophenyl)nicotinamide]	9.44
COc1ccc(CN2CCC(NC(=O)c3ccc(-c4cccc(F)c4)nc3)CC2)c(Cl)c1OC [Example 260, N-[1-(2-Chloro-3,4-dimethoxybenzyl)piperidin-4-yl]-6-(3-fluorophenyl)nicotinamide]	9.24
CS(=O)(=O)c1ccc(CN2CCC(NC(=O)c3ccc(-c4cccc(F)c4)nc3)CC2)cc1 [Example 259, 6-(3-Fluorophenyl)-N-{1-[4-(methylsulfonyl)benzyl]piperidin-4-yl}nicotinamide]	8.77
COc1cccc(-c2ccc(C(=O)NC3CCN(Cc4ccccn4)CC3)cn2)c1 [Example 15, 6-(3-Methoxyphenyl)-N-[1-(pyridin-2-ylmethyl)piperidin-4-yl]nicotinamide]	8.54
Cn1nc(-c2cccc(F)c2)nc1CN1CCC(NC(=O)c2ccc(-c3cccc(F)c3)nc2)CC1 [Example 483, 6-(3-Fluorophenyl)-N-(1-{[3-(3-fluorophenyl)-1-methyl-1H-1,2,4-triazol-5-yl]methyl}piperidin-4-yl)nicotinamide]	8.45
Cc1nc2ccccc2nc1CN1CCC(NC(=O)c2ccc(-c3cccc(F)c3)nc2)CC1 [Example 262, 6-(3-Fluorophenyl)-N-{1-[(3-methylquinoxalin-2-yl)methyl]piperidin-4-yl}nicotinamide]	8.41
CCc1ncc(CN2CCC(NC(=O)c3ccc(-c4cccc(F)c4)nc3)CC2)[nH]1 [Example 208, N-{1-[(2-Ethyl-1H-imidazol-5-yl)methyl]piperidin-4-yl}-6-(3-fluorophenyl)nicotinamide]	8.22

Molecule	pIC50
COc1cc2nc(N3CCC(NC(=O)c4ccc(-c5cccc(F)c5)nc4)CC3)nc(N)c2cc1OC [Example 130, N-[1-(4-Amino-6,7-dimethoxyquinazolin-2-yl)piperidin-4-yl]-6-(3-fluorophenyl)nicotinamide]	8.34
O=C(NC1CCN(Cc2c[nH]c3cc(F)ccc23)CC1)c1ccc(-c2cccc(F)c2)nc1 [Example 183, N-{1-[(6-Fluoro-1H-indol-3-yl)methyl]piperidin-4-yl}-6-(3-fluorophenyl)nicotinamide]	8.95
O=C(NC1CCN(Cc2ccccc2OCCO)CC1)c1ccc(-c2cccc(F)c2)nc1 [Example 255, 6-(3-Fluorophenyl)-N-{1-[2-(2-hydroxyethoxy)benzyl]piperidin-4-yl}nicotinamide]	9.13
N#Cc1ccc(C(=O)c2cccnc2N2CCC(NC(=O)c3ccc(-c4cccc(F)c4)nc3)CC2)cc1 [Example 111, N-{1-[3-(4-Cyanobenzoyl)pyridin-2-yl]piperidin-4-yl}-6-(3-fluorophenyl)nicotinamide]	8.79
Cc1c(CN2CCC(NC(=O)c3ccc(-c4cccc(F)c4)nc3)CC2)cnn1-c1ccccc1 [Example 356, 6-(3-Fluorophenyl)-N-{1-[(5-methyl-1-phenyl-1H-pyrazol-4-yl)methyl]piperidin-4-yl}nicotinamide]	8.70
O=C(NC1CCN(Cc2ncc[nH]2)CC1)c1ccc(-c2cccc(F)c2)nc1 [Example 300, 6-(3-Fluorophenyl)-N-[1-(1H-imidazol-2-ylmethyl)piperidin-4-yl]nicotinamide]	9.44
Cn1cc(CN2CCC(NC(=O)c3ccc(-c4cccc(F)c4)nc3)CC2)cn1 [Example 196, 6-(3-Fluorophenyl)-N-{1-[(1-methyl-1H-pyrazol-4-yl)methyl]piperidin-4-yl}nicotinamide]	8.87
O=C(NC1CCN(c2ccc(C(=O)NCC3CCCCC3)nn2)CC1)c1ccc(-c2cccc(F)c2)nc1 [Example 163, N-(Cyclohexylmethyl)-6-[4-({[6-(3-fluorophenyl)pyridin-3-yl]carbonyl}amino)piperidin-1-yl]pyridazine-3-carboxamide]	7.84
O=C(NC1CCN(c2ncccc2C(=O)NCc2ccccc2)CC1)c1ccc(-c2cccc(F)c2)nc1 [Example 152, N-Benzyl-2-[4-({[6-(3-fluorophenyl)pyridin-3-yl]carbonyl}amino)piperidin-1-yl]nicotinamide]	8.47
C[C@H](c1ccccc1)n1nnnc1N1CCC(NC(=O)c2ccc(-c3cccc(F)c3)nc2)CC1 [Example 104, 6-(3-Fluorophenyl)-N-(1-{1-[(1R)-1-phenylethyl]-1H-tetrazol-5-yl}piperidin-4-yl)nicotinamide]	8.50
CN(CCC#N)C(=O)c1ccc(N2CCC(NC(=O)c3ccc(-c4cccc(F)c4)nc3)CC2)nc1 [Example 576, N-(2-Cyanoethyl)-6-[4-({[6-(3-fluorophenyl)pyridin-3-yl]carbonyl}amino)piperidin-1-yl]-N-methylnicotinamide]	9.25
O=C(NC1CCN(c2nnnn2-c2ccccc2F)CC1)c1ccc(-c2cccc(F)c2)nc1 [Example 94, 6-(3-Fluorophenyl)-N-{1-[1-(2-fluorophenyl)-1H-tetrazol-5-yl]piperidin-4-yl}nicotinamide]	9.37
Cc1cc(C)c(C#N)c(N2CCC(NC(=O)c3ccc(-c4cccc(F)c4)nc3)CC2)n1 [Example 69, N-[1-(3-Cyano-46-dimethylpyridin-2-yl)piperidin-4-yl]-6-(3-fluorophenyl)nicotinamide]	8.92
N#Cc1ccc(C(F)(F)F)nc1N1CCC(NC(=O)c2ccc(-c3cccc(F)c3)nc2)CC1 [Example 70, N-{1-[3-Cyano-6-(trifluoromethyl)pyridin-2-yl]piperidin-4-yl}-6-(3-fluorophenyl)nicotinamide]	8.49
O=C(NC1CCN(Cc2ccc3cc[nH]c3c2)CC1)c1ccc(-c2cccc(F)c2)nc1 [Example 502, 6-(3-Fluorophenyl)-N-[1-(1H-indol-6-ylmethyl)piperidin-4-yl]nicotinamide]	8.70
O=C(NC1CCN(CC2CC2)CC1)c1ccc(-c2cccc(F)c2)nc1 [Example 596, N-[1-(Cyclopropylmethyl)piperidin-4-yl]-6-(3-fluorophenyl)nicotinamide]	8.71
Cc1nc(-c2ccccc2)ncc1CN1CCC(NC(=O)c2ccc(-c3cccc(F)c3)nc2)CC1 [Example 357, 6-(3-Fluorophenyl)-N-{1-[(4-methyl-2-phenylpyrimidin-5-yl)methyl]piperidin-4-yl}nicotinamide]	8.18
CCOc1cc(CN2CCC(NC(=O)c3ccc(-c4cccc(F)c4)nc3)CC2)ccc1OC [Example 249, N-[1-(3-Ethoxy-4-methoxybenzyl)piperidin-4-yl]-6-(3-fluorophenyl)nicotinamide]	8.93
Cc1cc(C)c(C#N)c(N2CC(NC(=O)c3ccc(-c4cccc(F)c4)nc3)C2)n1 [Example 602]	8.53
Cc1nc(N2CCC(NC(=O)c3ccc(-c4cccc(F)c4)nc3)CC2)c(C#N)cc1F [Example 121, N-[1-(3-Cyano-5-fluoro-6-methylpyridin-2-yl)piperidin-4-yl]-6-(3-fluorophenyl)nicotinamide]	8.92
